Measurements published in ChEMBL document CHEMBL1201862, “PubChem BioAssay data set” (2004).
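Five concentrations, 48 hours, 96-well plates. GI50 is the concentration that inhibits growth by half.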 Calls of active or inactive are those of the source. Rule as the data show it: active = GI50 up to about 1.1 µM and inactive = higher.

Columns and labels:
Assay in all cases: inhibition of tumour cell growth, NCI panel, 48 h
786-0 = test system: 786-0
A498 = test system: A498
A549 = test system: A549
ACHN = test system: ACHN
BT-549 = test system: BT-549
CAKI-1 = test system: CAKI-1
CCRF-CEM = test system: CCRF-CEM
COLO 205 = test system: COLO 205
DU-145 = test system: DU-145
HCT-116 = test system: HCT-116
HCT-15 = test system: HCT-15
HL-60 = test system: HL-60
HOP-62 = test system: HOP-62
HOP-92 = test system: HOP-92
HT-29 = test system: HT-29
Hs-578T = test system: Hs-578T
IGROV-1 = test system: IGROV-1
KM12 = test system: KM12
LOX IMVI = test system: LOX IMVI
M14 = test system: M14
MCF7 = test system: MCF7
MDA-MB-435 = test system: MDA-MB-435
MDA-N = test system: MDA-N
MOLT-4 = test system: MOLT-4
Malme-3M = test system: Malme-3M
NCI-H23 = test system: NCI-H23
NCI-H460 = test system: NCI-H460
NCI-H522 = test system: NCI-H522
NCI/ADR-RES = test system: NCI/ADR-RES
OVCAR-3 = test system: OVCAR-3
OVCAR-4 = test system: OVCAR-4
OVCAR-5 = test system: OVCAR-5
OVCAR-8 = test system: OVCAR-8
PC-3 = test system: PC-3
RXF 393 = test system: RXF 393
SF-268 = test system: SF-268
SF-295 = test system: SF-295
SF-539 = test system: SF-539
SK-MEL-28 = test system: SK-MEL-28
SK-MEL-2 = test system: SK-MEL-2
SK-MEL-5 = test system: SK-MEL-5
SK-OV-3 = test system: SK-OV-3
SN12C = test system: SN12C
SNB-19 = test system: SNB-19
SNB-75 = test system: SNB-75
SR = test system: SR
SW-620 = test system: SW-620
T47D = test system: T47D
TK-10 = test system: TK-10
U-251 = test system: U-251
UACC-257 = test system: UACC-257
UACC-62 = test system: UACC-62
UO-31 = test system: UO-31
EKVX = test system: EKVX
HCC 2998 = test system: HCC 2998
K562 = test system: K562
MDA-MB-231 = test system: MDA-MB-231
NCI-H226 = test system: NCI-H226

Measured: GI50

C[C@@H](Oc1ccc(Oc2cnc3ccc(Cl)cc3n2)cc1)C(=O)O [R(+)XK469]
> 100 µM: HCT-15
inactive: 786-0 > 100 µM | A498 > 100 µM | A549 55.5 µM | ACHN 87.9 µM | BT-549 > 100 µM | CAKI-1 > 100 µM | CCRF-CEM 97.3 µM | COLO 205 59.3 µM | DU-145 > 100 µM | HCT-116 94.2 µM | HL-60 37.1 µM | HOP-62 72.8 µM | HOP-92 > 100 µM | HT-29 > 100 µM | Hs-578T 60.1 µM | IGROV-1 83 µM | KM12 76.6 µM | LOX IMVI > 100 µM | M14 > 100 µM | MCF7 39 µM | MDA-MB-435 > 100 µM | MDA-N > 100 µM | MOLT-4 > 100 µM | Malme-3M > 100 µM | NCI-H23 > 100 µM | NCI-H460 11.2 µM | NCI-H522 19.1 µM | NCI/ADR-RES > 100 µM | OVCAR-3 95.7 µM | OVCAR-4 > 100 µM | OVCAR-5 > 100 µM | OVCAR-8 > 100 µM | PC-3 > 100 µM | RXF 393 > 100 µM | SF-268 > 100 µM | SF-295 > 100 µM | SF-539 > 100 µM | SK-MEL-28 > 100 µM | SK-MEL-2 > 100 µM | SK-MEL-5 67.5 µM | SK-OV-3 > 100 µM | SN12C > 100 µM | SNB-19 > 100 µM | SNB-75 > 100 µM | SR > 100 µM | SW-620 85.3 µM | T47D > 100 µM | TK-10 > 100 µM | U-251 > 100 µM | UACC-257 > 100 µM | UACC-62 66.7 µM | UO-31 > 100 µM

O=S(=O)(CCC[C@H]1[C@@H](CCOCc2ccccc2)C2CCCN1O2)c1ccccc1 (some centres not stated)
inactive: 786-0 > 100 µM | A498 > 100 µM | A549 > 100 µM | ACHN > 100 µM | BT-549 41 µM | CAKI-1 > 100 µM | CCRF-CEM > 100 µM | COLO 205 > 100 µM | EKVX 57.3 µM | HCC 2998 > 100 µM | HCT-116 > 100 µM | HOP-62 > 100 µM | HOP-92 > 100 µM | HT-29 > 100 µM | Hs-578T > 100 µM | IGROV-1 > 100 µM | K562 63.2 µM | KM12 > 100 µM | M14 > 100 µM | MCF7 > 100 µM | MDA-MB-231 > 100 µM | MDA-MB-435 > 100 µM | MDA-N > 100 µM | MOLT-4 65.3 µM | Malme-3M > 100 µM | NCI-H226 > 100 µM | NCI-H23 > 100 µM | NCI-H460 > 100 µM | NCI-H522 > 100 µM | NCI/ADR-RES > 100 µM | OVCAR-3 > 100 µM | OVCAR-4 > 100 µM | OVCAR-5 > 100 µM | OVCAR-8 > 100 µM | PC-3 > 100 µM | RXF 393 > 100 µM | SF-268 > 100 µM | SF-295 > 100 µM | SF-539 > 100 µM | SK-MEL-28 > 100 µM | SK-MEL-5 43.3 µM | SK-OV-3 > 100 µM | SN12C > 100 µM | SNB-19 > 100 µM | SNB-75 > 100 µM | SR > 100 µM | SW-620 > 100 µM | T47D 59.2 µM | TK-10 > 100 µM | U-251 > 100 µM | UACC-257 > 100 µM | UACC-62 > 100 µM | UO-31 > 100 µM
> 100 µM: HCT-15
